Data published in patent US11622991B2, “Protocol for treatment of lupus nephritis” (Aurinia Pharmaceuticals Inc., priority 2017, dated 2023).

Tested on: lupus nephritis
Test: Predictability of week 48 partial remission from early reduction in UPCR (Tables 4-8)
Format: in vivo, human
Procedure: In the study reported in Example 1, the predictability of outcomes based on markers at early time points were determined.
This is important because it is undesirable to subject a patient to unnecessary treatment, even if the treatment is relatively safe.
PR is defined as at least 50% reduction in proteinuria (i.e. UPCR).
Sensitivity is defined as the probability that a subject showing PR at 48 weeks would have shown a favorable result with regard to the marker at the designated early time point. In the tables below, this is the ratio of the number of subjects with favorable marker results (early drop or normalization) to the total subjects with 48 week PR.
Specificity is defined as the probability that a subject not showing PR at 48 weeks would have shown an unfavorable result with regard to the marker at the designated early time point. In the tables below, this is the ratio of the number of subjects with unfavorable marker results (no early drop or no normalization) to the total subjects with no 48 week PR.
Positive predictive value is defined as the probability that a subject showing a favorable result with respect to the marker at an earlier time point would show PR at 48 weeks. In the tables below, this is the ratio of the number of subjects with favorable marker results who have 48 week PR to those with favorable marker results (early reduction or yes column).
Negative predictive value is defined as the probability that a subject showing an unfavorable result with respect to the marker at an earlier time point would not show PR at 48 weeks. In the tables below, this is the ratio of the number of subjects with unfavorable marker results who have no PR at 48 weeks to the total subjects with unfavorable marker results (no early reduction or no column).

[1] = 25% reduction in UPCR, Week 26, 23.7 mg BID
[2] = 25% reduction in UPCR, Week 26, 39.5 mg BID
[3] = 25% reduction in UPCR, Week 36, 23.7 mg BID
[4] = 25% reduction in UPCR, Week 36, 39.5 mg BID
[5] = 25% reduction in UPCR, Week 48, 23.7 mg BID
[6] = 25% reduction in UPCR, Week 48, 39.5 mg BID
[7] = early 30% reduction in UPCR, week 2, 39.5 mg BID
[8] = early 30% reduction in UPCR, week 6, 23.7 mg BID
[9] = early 30% reduction in UPCR, week 8, 23.7 mg BID
[10] = early 30% reduction in UPCR, week 8, 39.5 mg BID
[11] = early 30% reduction in UPCR, week 12, 39.5 mg BID
[12] = early 30% reduction in UPCR, week 16, 23.7 mg BID
[13] = early 30% reduction in UPCR, week 16, 39.5 mg BID
[14] = early 30% reduction in UPCR, week 20, 23.7 mg BID
[15] = early 30% reduction in UPCR, week 24, 23.7 mg BID
[16] = early 30% reduction in UPCR, week 24, 39.5 mg BID
[17] = early 30% reduction in UPCR, week 26, 23.7 mg BID
[18] = early 30% reduction in UPCR, week 26, 39.5 mg BID
[19] = early 30% reduction in UPCR, week 36, 23.7 mg BID
[20] = early 30% reduction in UPCR, week 36, 39.5 mg BID
[21] = early 30% reduction in UPCR, week 48, 23.7 mg BID
[22] = early 30% reduction in UPCR, week 48, 39.5 mg BID
[23] = early 35% reduction in UPCR, week 2, 39.5 mg BID
[24] = early 35% reduction in UPCR, week 6, 23.7 mg BID
[25] = early 35% reduction in UPCR, week 8, 23.7 mg BID
[26] = early 35% reduction in UPCR, week 8, 39.5 mg BID
[27] = early 35% reduction in UPCR, week 12, 23.7 mg BID
[28] = early 35% reduction in UPCR, week 12, 39.5 mg BID
[29] = early 35% reduction in UPCR, week 16, 23.7 mg BID
[30] = early 35% reduction in UPCR, week 16, 39.5 mg BID
[31] = early 35% reduction in UPCR, week 20, 23.7 mg BID
[32] = early 35% reduction in UPCR, week 24, 23.7 mg BID
[33] = early 35% reduction in UPCR, week 24, 39.5 mg BID
[34] = early 35% reduction in UPCR, week 26, 23.7 mg BID
[35] = early 35% reduction in UPCR, week 26, 39.5 mg BID
[36] = early 35% reduction in UPCR, week 36, 23.7 mg BID
[37] = early 35% reduction in UPCR, week 36, 39.5 mg BID
[38] = early 35% reduction in UPCR, week 48, 23.7 mg BID

C=C/C=C/C[C@@H](C)[C@@H](O)[C@H]1C(=O)N[C@@H](CC)C(=O)N(C)CC(=O)N(C)[C@@H](CC(C)C)C(=O)N[C@@H](C(C)C)C(=O)N(C)[C@@H](CC(C)C)C(=O)N[C@@H](C)C(=O)N[C@H](C)C(=O)N(C)[C@@H](CC(C)C)C(=O)N(C)[C@@H](CC(C)C)C(=O)N(C)[C@@H](C(C)C)C(=O)N1C [voclosporin]
No Week 48 Partial Remission Early Drop [1]: 8
No Week 48 Partial Remission No Early Drop [1]: 4
No Week 48 Partial Remission No Early Drop [2]: 4
Week 48 Partial Remission No Early Drop [2]: 1
Early Reduction No [3]: 4
No Week 48 Partial Remission Early Drop [3]: 10
No Week 48 Partial Remission No Early Drop [3]: 3
Week 48 Partial Remission No Early Drop [3]: 1
Early Reduction No [4]: 8
Week 48 Partial Remission No Early Drop [4]: 2
Early Reduction No [5]: 2
No Week 48 Partial Remission Early Drop [5]: 9
No Week 48 Partial Remission No Early Drop [5]: 2
Early Reduction No [6]: 9
No Week 48 Partial Remission Early Drop [6]: 7
No Week 48 Partial Remission No Early Drop [6]: 9
No Week 48 Partial Remission Early Drop [7]: 11
Week 48 Partial Remission Early Drop [7]: 31
Week 48 Partial Remission No Early Drop [7]: 29
No Week 48 Partial Remission Early Drop (early 30% reduction in UPCR, week 4, 23.7 mg BID): 11
Week 48 Partial Remission No Early Drop (early 30% reduction in UPCR, week 4, 39.5 mg BID): 16
No Week 48 Partial Remission Early Drop [8]: 10
No Week 48 Partial Remission No Early Drop [8]: 8
Week 48 Partial Remission No Early Drop [8]: 10
Week 48 Partial Remission No Early Drop (early 30% reduction in UPCR, week 6, 39.5 mg BID): 16
No Week 48 Partial Remission Early Drop [9]: 10
No Week 48 Partial Remission No Early Drop [9]: 9
Week 48 Partial Remission No Early Drop [9]: 7
Early Reduction No [10]: 11
No Week 48 Partial Remission No Early Drop [10]: 4
Week 48 Partial Remission No Early Drop [10]: 7
No Week 48 Partial Remission No Early Drop (early 30% reduction in UPCR, week 12, 23.7 mg BID): 7
Early Reduction No [11]: 11
No Week 48 Partial Remission No Early Drop [11]: 4
Week 48 Partial Remission No Early Drop [11]: 7
Early Reduction No [12]: 10
No Week 48 Partial Remission Early Drop [12]: 11
No Week 48 Partial Remission No Early Drop [12]: 7
Week 48 Partial Remission No Early Drop [12]: 3
No Week 48 Partial Remission No Early Drop [13]: 7
Week 48 Partial Remission No Early Drop [13]: 8
Early Reduction No [14]: 10
No Week 48 Partial Remission Early Drop [14]: 9
No Week 48 Partial Remission No Early Drop [14]: 7
Week 48 Partial Remission No Early Drop [14]: 3
Early Reduction No (early 30% reduction in UPCR, week 20, 39.5 mg BID): 10
Early Reduction No [15]: 4
No Week 48 Partial Remission Early Drop [15]: 11
No Week 48 Partial Remission No Early Drop [15]: 3
Week 48 Partial Remission No Early Drop [15]: 1
No Week 48 Partial Remission No Early Drop [16]: 7
Week 48 Partial Remission No Early Drop [16]: 9
No Week 48 Partial Remission Early Drop [17]: 7
Week 48 Partial Remission No Early Drop [17]: 1
Early Reduction No [18]: 8
No Week 48 Partial Remission Early Drop [18]: 11
Week 48 Partial Remission No Early Drop [18]: 3
Early Reduction No [19]: 4
No Week 48 Partial Remission Early Drop [19]: 10
No Week 48 Partial Remission No Early Drop [19]: 3
Week 48 Partial Remission No Early Drop [19]: 1
Early Reduction No [20]: 9
No Week 48 Partial Remission Early Drop [20]: 11
No Week 48 Partial Remission No Early Drop [20]: 7
Week 48 Partial Remission No Early Drop [20]: 2
Early Reduction No [21]: 3
No Week 48 Partial Remission Early Drop [21]: 8
No Week 48 Partial Remission No Early Drop [21]: 3
Early Reduction No [22]: 11
No Week 48 Partial Remission No Early Drop [22]: 11
Early Reduction Yes [23]: 39
No Week 48 Partial Remission Early Drop [23]: 11
Week 48 Partial Remission No Early Drop [23]: 32
No Week 48 Partial Remission Early Drop (early 35% reduction in UPCR, week 4, 23.7 mg BID): 11
No Week 48 Partial Remission No Early Drop (early 35% reduction in UPCR, week 4, 39.5 mg BID): 8
No Week 48 Partial Remission Early Drop [24]: 9
No Week 48 Partial Remission No Early Drop [24]: 9
Week 48 Partial Remission No Early Drop (early 35% reduction in UPCR, week 6, 39.5 mg BID): 16
No Week 48 Partial Remission Early Drop [25]: 9
No Week 48 Partial Remission No Early Drop [25]: 10
Week 48 Partial Remission No Early Drop [25]: 8
No Week 48 Partial Remission No Early Drop [26]: 4
Week 48 Partial Remission No Early Drop [26]: 8
No Week 48 Partial Remission Early Drop [27]: 10
No Week 48 Partial Remission No Early Drop [27]: 9
Week 48 Partial Remission No Early Drop [27]: 7
No Week 48 Partial Remission No Early Drop [28]: 4
Week 48 Partial Remission No Early Drop [28]: 10
Early Reduction No [29]: 11
No Week 48 Partial Remission Early Drop [29]: 11
No Week 48 Partial Remission No Early Drop [29]: 7
Week 48 Partial Remission No Early Drop [29]: 4
No Week 48 Partial Remission No Early Drop [30]: 7
Week 48 Partial Remission No Early Drop [30]: 8
Early Reduction No [31]: 11
No Week 48 Partial Remission Early Drop [31]: 8
No Week 48 Partial Remission No Early Drop [31]: 8
Week 48 Partial Remission No Early Drop [31]: 3
Early Reduction No (early 35% reduction in UPCR, week 20, 39.5 mg BID): 11
Early Reduction No [32]: 7
No Week 48 Partial Remission Early Drop [32]: 8
Week 48 Partial Remission No Early Drop [32]: 1
No Week 48 Partial Remission No Early Drop [33]: 7
Week 48 Partial Remission No Early Drop [33]: 9
Early Reduction No [34]: 8
No Week 48 Partial Remission Early Drop [34]: 7
Week 48 Partial Remission No Early Drop [34]: 3
Early Reduction No [35]: 11
No Week 48 Partial Remission Early Drop [35]: 11
No Week 48 Partial Remission Early Drop [36]: 9
No Week 48 Partial Remission No Early Drop [36]: 4
Week 48 Partial Remission No Early Drop [36]: 1
Early Reduction No [37]: 9
No Week 48 Partial Remission Early Drop [37]: 11
No Week 48 Partial Remission No Early Drop [37]: 7
Week 48 Partial Remission No Early Drop [37]: 2
Early Reduction No [38]: 4
No Week 48 Partial Remission Early Drop [38]: 7
No Week 48 Partial Remission No Early Drop [38]: 4
No Week 48 Partial Remission Early Drop (early 35% reduction in UPCR, week 48, 39.5 mg BID): 4
